According to patent US6169084A, “2-methyl-thieno-benzodiazepine formulation” (Eli Lilly and Company, priority 1998, dated 2001):

Key:
[1] = dogs, male vs female; cited from earlier work
[2] = Discoloration of olanzapine in contact with excipients; format: physicochemical; conditions: contacted with certain excipients including powder blends; exacerbated by ambient air, elevated temperatures, moist environments

Q: Which results are given for Cc1cc2c(s1)Nc1ccccc1N=C2N1CCN(C)CC1 [olanzapine, 2-methyl-4-(4-methyl-1-piperazinyl)-10H-thieno[2,3-b][1,5]benzodiazepine]?
A: difference in the pharmacokinetic of olanzapine between the sexes [1]: no difference; discoloration (stability) [2]: undergoes undesirable discoloration
